{
  "source": "patent US20110207697A1",
  "about": "“XANTHOHUMOL COMPOSITIONS AND METHODS FOR TREATING SKIN DISEASES OR DISORDERS” (Betal, LLC, priority 2008, published 2011)",
  "key": {"S. aureus (ATCC 6538P)": {"system": "S. aureus (ATCC 6538P)", "assay": "Antimicrobial susceptibility, broth dilution (MIC/MBC)", "format": "cell-based, Staphylococcus aureus", "description": "The antibacterial effects of seven hops components against five different strains of bacteria involved in primary or secondary skin and soft tissue infections was evaluated, with broth dilution methods. […] Antimicrobial susceptibility testing was performed using a broth dilution method. Gentamicin or ampicillin was used as a control to verify the methodology. A stock solution (20 mg/ml) of the test substance (or vehicle control) was prepared in dimethyl sulfoxide. Serial dilution was done in microwell plates. Reinforced Clostridial Medium was used for P. acnes (ATCC 6919). Three hundreds […] of the test substance was added to the test tube containing P. acnes (10^5 CFU/ml) in 2.7 ml of cultures grown under anaerobic conditions. Mueller-Hinston Broth suitable for culturing S. epidermidis (ATCC 12228), K. rhizophila (formerly M. luteus) (ATCC 9341), and S. aureus (ATCC […]), and Brain Heart Infusion Broth suitable for culturing S. pyogenes (ATCC 14289) were used. A total of […] of the test substance was added to the test tube containing the other microorganisms (10^5CFU/ml) in 0.9 ml of cultures grown under controlled conditions. […] Samples from those tubes that scored positive was plated onto an agar plate and incubated under controlled conditions."}, "[1]": {"target": "T1, interstitial collagenase (MMP-1) (Homo sapiens, UniProt P03956)", "T1 construct": "host or cells: mammalian cells", "T1 sequence (P03956 100-469)": "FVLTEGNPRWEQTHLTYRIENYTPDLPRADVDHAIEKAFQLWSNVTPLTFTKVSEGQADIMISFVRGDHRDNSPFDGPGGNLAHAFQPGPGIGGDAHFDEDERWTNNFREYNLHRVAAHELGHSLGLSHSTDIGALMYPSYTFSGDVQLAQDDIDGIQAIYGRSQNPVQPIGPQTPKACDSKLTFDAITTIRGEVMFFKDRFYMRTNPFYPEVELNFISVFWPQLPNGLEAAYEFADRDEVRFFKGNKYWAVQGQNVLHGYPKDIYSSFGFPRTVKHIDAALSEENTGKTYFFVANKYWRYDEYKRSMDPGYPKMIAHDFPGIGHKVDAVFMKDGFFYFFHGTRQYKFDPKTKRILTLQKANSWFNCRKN", "assay": "Anticollagenase assay", "format": "biochemical", "details": "mean of three measurements", "description": "(§1) Human recombinant matrix metalloproteinase-MMP-1) pro-enzyme, expressed in mammalian cells, and human nutrophil MMP-8 pro-enzyme were activated with 4-aminophenylmercuric acetate for 60 min 37 1 C, respectively (Knight et al. 1992 FEBS Lett. 296: 263-266). Hop components and vehicle were preincubated with 5 nM MMP- and 6 nM MMP-8 active enzymes in a modified MOPS buffer, pH 7.2, for 60 minutes at 37 C. The reaction was initiated by addition of […] Mca-Pro-Leu-Gly-Leu-Dpa-Ala-Arg for another 120-minute incubation period. The determination of the amount of Mca-Pro-Leu-Gly formed was read spectrofluorimetrically at 340/400 nm. Tissue inhibitors of metalloproteinase TIMP-1 and TIMP-2 were used as positive controls (Olson et 1997 J. Biol. Chem. 272: 29975-29983)."}, "[2]": {"target": "T2, neutrophil collagenase (MMP-8) (Homo sapiens, UniProt P22894)", "T2 construct": "from tissue; host or cells: human neutrophils", "T2 sequence (P22894 101-467)": "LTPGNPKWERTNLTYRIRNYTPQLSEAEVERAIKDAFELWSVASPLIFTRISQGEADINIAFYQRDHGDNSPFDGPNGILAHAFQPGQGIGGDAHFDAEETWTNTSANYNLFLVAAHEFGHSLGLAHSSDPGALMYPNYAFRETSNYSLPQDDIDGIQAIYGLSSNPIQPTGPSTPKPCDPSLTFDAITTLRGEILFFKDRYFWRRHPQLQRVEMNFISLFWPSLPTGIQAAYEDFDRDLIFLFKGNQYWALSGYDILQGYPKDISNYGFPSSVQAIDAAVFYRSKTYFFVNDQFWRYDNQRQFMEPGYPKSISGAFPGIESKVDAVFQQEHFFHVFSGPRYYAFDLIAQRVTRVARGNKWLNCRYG", "assay": "Anticollagenase assay", "format": "biochemical", "details": "mean of three measurements", "description": "as §1"}, "[3]": {"assay": "Hydrophilic oxygen radical absorbance capacity (ORAC-H)", "details": "water-soluble antioxidant capacity; expressed as mmol TE/g; — = No activity detected", "excerpt": "(§2) Thus the ORAC method has become a widely used method for assessing antioxidant capacity in biological samples and foods. However, because of its inability to measure both hydrophilic and lipophilic antioxidants, the method has its limitations. An ORAC method for lipophilic antioxidants was further developed and validated using fluorescein as the fluorescent probe (Prior et al. 2003 J. Agric. Food Chem. 51: 3273-3279). […] In the present work, the ORAC value is expressed as the sum of values of both the water-soluble and fat-soluble parts. […] Both hydrophilic and lipophilic oxygen radical absorbance capacity (ORAC) assays were carried out at Brunswick Laboratory (Wareham, Mass.) based on the modified ORACfl method reported by Ou et al. (2001 J. Agric. Food Chem. 49: 4619-4626, 2002 J. Agr. Food Chem. 50: 3122-3128). Trolox, a water-soluble vitamin E analog, was used as the calibration standard. The data are expressed as mmole of Trolox equivalents per gram (mmol TE/g). […] Hydroxyl radical ORAC (HOR-AC) is expressed as mmole caffeic acid equivalent per gram (mmol CAE/g). […] The peroxyl nitrite ORAC (NORAC) result is expressed as mmol TE/g. […] Radical-scavenging activity was measured by the change in absorbance at 517 nm with the DPPH result expressed as mmol TE/g. […] The FRAP result is expressed as mmol TE/g (Ou et al. 2002b)."}, "[4]": {"assay": "Lipophilic oxygen radical absorbance capacity (ORAC-L)", "details": "lipid soluble antioxidant capacity; expressed as mmol TE/g; — = No activity detected", "excerpt": "as §2"}},
  "data": [
    {"smiles": "COc1cc(O)c(CC=C(C)C)c(O)c1C(=O)/C=C/c1ccc(O)cc1", "note": "[Xanthohumol (7), 3′-[3,3-dimethylallyl]-2′,4′,4-trihydroxy-6′-methoxychalcone]", "values": [
      {"measurement": "MBC", "setting": "S. aureus (ATCC 6538P)", "value": "[100] g/mL"},
      {"measurement": "MIC", "setting": "S. aureus (ATCC 6538P); 1 day", "value": 1, "unit": "µg/mL"},
      {"measurement": "MIC", "setting": "S. aureus (ATCC 6538P); Staphylococcus aureus, ATCC6538P", "value": 1000, "unit": "µg/mL"},
      {"measurement": "Inhibitory ratio (%) MMP-1", "setting": "[1]; 10 μg/mL", "value": 25, "unit": "%"},
      {"measurement": "Inhibitory ratio (%) MMP-1", "setting": "[1]; 30 μg/mL", "value": 65, "unit": "%"},
      {"measurement": "Inhibitory ratio (%) MMP-1", "setting": "[1]; 100 μg/mL", "value": 91, "unit": "%"},
      {"measurement": "Inhibitory ratio (%) MMP-8", "setting": "[2]; 10 μg/mL", "value": 31, "unit": "%"},
      {"measurement": "Inhibitory ratio (%) MMP-8", "setting": "[2]; 30 μg/mL", "value": 70, "unit": "%"},
      {"measurement": "Inhibitory ratio (%) MMP-8", "setting": "[2]; 100 μg/mL", "value": 99, "unit": "%"},
      {"measurement": "ORAC-H (Trolox equivalent)", "setting": "[3]", "value": 2.1, "unit": "Trolox equivalent"},
      {"measurement": "ORAC-L (Trolox equivalent)", "setting": "[4]", "value": 2.1, "unit": "Trolox equivalent"}
    ]}
  ]
}
